Series [1] concerns human immunodeficiency virus-1 (HIV-1). Put plainly: anti-HIV MAGI assay. To be noted: anti-HIV. In kind it is cell-based. The text has this:
(§1) We examined the inhibitory activities of DDPs against various species of bacteria (both gram-negative and gram-positive bacteria), fungi and viruses. […] In contrast, preliminary screening of the DDPs for anti-viral agents with hepatitis B virus (HBV), measles virus (MV), Epstein-Barr virus (EBV), herpes simplex virus (HSV) and human immunodeficiency virus-1 (HIV-1) indicated their selective inhibition of HIV.

For the next series, the system named is MAGI cells. Put plainly: cytotoxicity in the anti-HIV assay (CC50). It is filed as cell-based.
Excerpt: as §1
Policy information about cell lines […]
HeLa-CD4-LTR/ !-galactosidase (MAGI) cells provided by Dr. J. Overbaugh through the NIH AIDS Research and Reference […]
MAGI cells were authenticated by the NIH.
Mycoplasma contamination All the cell lines tested negative for mycoplasma contamination.
Commonly misidentified lines No commonly mis-identified cell lines. […]

For series [2], the system named is MCF-7 cells. Put plainly: mammosphere formation assay. To be noted: MCF-7, 5 μM, 7 days; for MFE (%) ave: mean of 3, control 0.87; for MFE (control = 1) ave: relative to control = 1; for MFE (%): single replicates. In kind it is cell-based, human. The protocol:
We also evaluated antiproliferative activity against cancer stem cells (CSCs), which are a small sub-population in tumour bulk identified in most cancer cells and clinical samples[52]. CSCs have been a major problem in cancer therapy because they are responsible for recurrence, metastasis and drug resistance to chemotherapeutic agents that affect proliferative cells[53]–[56]. Anti-CSC activity was evaluated by the inhibition of sphere-forming ability, a well-studied method to enrich the CSC-like population, and selective cytotoxicity against one of the most reliable CSC markers, aldehyde dehydrogenase (ALDH)-positive cells. […] Low-toxicity 16 was also added as a negative control. […] We next evaluated the three DDPs that inhibited mammosphere formations against ALDH-positive cells, a functional marker for breast CSCs. MCF-7 cells were treated with 1 μM of 11, 12 or 22, and the ALDH-positive cell population was analysed by using a fluorescence activated cell sorter (Supplementary Fig. 46b). […] Thus, for the first time, we successfully found DDPs with potent antiproliferative effects on the CSC-like population in MCF-7 cells, which may lead to new anti-CSC drugs.
Fig. 5 DDPs show anti-CSC activity in breast cancer cell line MCF-7. a Effect of DDPs on mammosphere formation. After the cells were cultured in the presence of 5 μM DDPs for 7 days, the number of mammospheres was microscopically counted and the percentage of mammosphere-forming cells was determined as mammosphere-forming efficiency (MFE; %). Data represent mean ± s.d. from three independent replicate experiments. P-values were calculated by a two-sided unpaired Student’s t-test, compared with control. b Micrographs show representative images of mammosphere formation from three independent replicate experiments using compound 11, 12, 16, 22. The scale bar, […]. c Effect of DDPs (1 μM, 3 days) on ALDH-positive cells in MCF-7 cells. Data represent mean ± s.d. from three independent replicate experiments. P-values were calculated by a two-sided unpaired Student’s t-test, compared with control. d Dose-dependent effect of compound 12 on ALDH-positive cells in MCF-7 cells. Data represent mean ± s.d. from three independent replicate experiments. P-values were calculated by a two-sided unpaired Student’s t-test. Source data underlying Fig. 5a, c, d are provided in a Source Data file.

For series [3], the system named is MCF-7 cells. Put plainly: cell cytotoxic effects against MCF-7 cells (72 h), A490. It is filed as cell-based, human. To be noted: MCF-7, 72 h; for viability at 0.1 µM / viability at 1 µM / viability at 10 µM: Homo sapiens, MCF7, 72 h, read-out: A490 (control =1) ave. As to the method:
!" ' ' '! !" ' ' '! !" ' ' '!!" ' ' '!!" ' ' '!!" ' ' '!!" ' ' '!!" ' ' '! !" ' ' '! !" ' ' '! !" ' ' '! !"#$
( % ) * '! '' '# '+ '$ '( '%
! " # $ %& %% %' %( %) %! %"
!" ' ' '! !" ' ' '!!" ' ' '!!" ' ' '!!" ' ' '!!" ' ' '!!" ' ' '! !" ' ' '! !" ' ' '! !" ' ' '! !" ' ' '! […]
Supplementary Fig. 46. a, Cell cytotoxic effects of DDPs against MCF-7 cells (72 h).
dose dependent cytotoxic effects against MCF-7 cells were tested their inhibitory activity against mammosphere
formation. Compound in blue (16) was also performed mammosphere assay as negative control. Data represent
mean±s.d. from three independent replicate experiments. […]
Source data underlying Supplementary Figure 46a are provided in a Source Data file. […]

Where [4] appears, read: 0.1 µM (DMSO 0.002%), control 1.064.
Setting [5] is: 1 µM (DMSO 0.02%), control 1.104.
The mark [6] stands for this setting: 10 µM (DMSO 0.2%), control 1.049.

“And” between values parts separate entries of the source, which are not always exact repeats. Equal values may be shown once. Read-outs that look alike come from different tables or passages of the source.

Usually EC50 stands for the concentration giving half of the maximal effect. One may read the CC50 as the concentration giving 50% cytotoxicity. Low values mean harm at low concentration, high ones better tolerance by the cells.

With `Cc1oc(=O)cc(O)c1C` [Compound 1], the EC50 in series [1] (Human immunodeficiency virus 1, MAGI, average of numeric determinations, read-out: Avg. EC50) is 76 nM. In the series on MAGI cells (single determinations), the Cytotoxicity is >10 µM and 9.224 µM and 8.859 µM.
For `COc1cccc2c1C(=O)c1c(O)c3c(c(O)c1C2=O)C[C@@](O)(C(=O)CO)C[C@@H]3O[C@H]1C[C@H](N)[C@H](O)[C@H](C)O1` [Dox, doxorubicin, reference compound], in the series with MCF-7 cells [2], the “MFE (%) ave” value turned out to be 0.58%; the “MFE (control = 1) ave” value stood at 0.67; the “MFE (%)” value was 0.68% and 0.52% and 0.54%. Further, the viability at 0.1 µM in the series on MCF-7 cells [3] (0.1 µM (DMSO 0.002%)) came out at 82.9%. Also, the viability at 1 µM in the series with MCF-7 cells [3] (1 µM (DMSO 0.02%)) was found to be 47.4%. Besides, in the series on MCF-7 cells [3] (10 µM (DMSO 0.2%)), the viability at 10 µM came to 21%. Further, the A490 ave in the series on MCF-7 cells [3] (setting [4]) is 0.882. The same molecule displayed an A490 ave in the series on MCF-7 cells [3] (setting [5]) of 0.523. Besides, in the series on MCF-7 cells [3] (setting [6]), the A490 ave is reported as 0.220. The A490 with MCF-7 cells [3] (10 µM (DMSO 0.2%), single replicates) was 0.193.
As for `CC(C)=CCCC1(C)OC1CC/C(C)=C/CC/C(C)=C/Cc1c(O)c(C)c(C)oc1=O` (centres unmarked) [Compound 3], the half-maximal effective concentration (EC50) in series [1] (Human immunodeficiency virus 1, MAGI, single determinations, read-out: Efficacy (EC50)) was more than 10000 nM.
Regarding `Cc1cn([C@H]2C[C@H](N=[N+]=[N-])[C@@H](CO)O2)c(=O)[nH]c1=O` [AZT, reference compound], the EC50 in series [1] (MAGI assay, read-out: EC50) was determined as 29.7 nM; in series [1] (average of numeric determinations, read-out: Avg. EC50), 29.7 nM. The same molecule returned a cytotoxic concentration (CC50) in the series on MAGI cells of more than 10000 nM. The Cytotoxicity with MAGI cells was more than 10 µM.
Take `O=c1[nH]cc(F)c(=O)[nH]1` [Compound 5-FU, 5-fluorouracil, reference compound]: the “MFE (%) ave” value in the series on MCF-7 cells [2] is listed as 1.09%. Also, in the series on MCF-7 cells [2], the “MFE (control = 1) ave” value was found to be 1.25. Moreover, in the series with MCF-7 cells [2], the “MFE (%)” value was 1.16% and 1.20% and 0.90%. Besides, the viability at 0.1 µM in the series on MCF-7 cells [3] (0.1 µM (DMSO 0.002%)) was 75.5%. Also, the viability at 1 µM with MCF-7 cells [3] (1 µM (DMSO 0.02%)) stood at 67.3%. Further, the viability at 10 µM in the series on MCF-7 cells [3] (10 µM (DMSO 0.2%)) came to 55.5%. For the same molecule, the A490 ave in the series on MCF-7 cells [3] (setting [4]) amounted to 0.803; in the series with MCF-7 cells [3] (setting [5]), 0.744; in the series on MCF-7 cells [3] (setting [6]), 0.582.

The record behind these values is PMC7156458, “Synthetic biology based construction of biological activity-related library of fungal decalin-containing diterpenoid pyrones” (Nature Communications, 2020).
